Patent US20260151425A1, “COMPOSITIONS AND METHODS OF USE THEREOF” (SYNEDGEN, INC., priority 2020, published 2026)
Read-outs that look alike come from different tables or passages of the source.

Experiments:
[1] = test system: M. avium complex NTM 0260; assay: MIC of CF NTM clinical isolates; format: cell-based; settings: for CLSI clinical breakpoint category: NTM 0260; for MIC: M. avium complex NTM 0260
[2] = test system: M. abscessus subsp. abscessus NTM 0082; assay: MIC of CF NTM clinical isolates; format: cell-based; settings: for CLSI clinical breakpoint category: NTM 0082; for MIC: M. abscessus subsp. abscessus NTM 0082
[3] = test system: M. avium complex NTM 0813; assay: MIC of CF NTM clinical isolates; format: cell-based; settings: for CLSI clinical breakpoint category: NTM 0813; for MIC: M. avium complex NTM 0813
MABSC NTM 0082 = assay: 2D checkerboard analysis, antibiotic MIC with PAAG; format: cell-based, Mycobacterium abscessus complex; settings: for Fold Change: MIC alone vs MIC with PAAG 128 μg/mL; for MIC: Mycobacteroides abscessus
Description: (§1) PAAG synergy with conventional antibiotics was determined by 2D checkerboard analysis. PAAG's antimicrobial activity and antibiotic potentiation in a biofilm were determined by minimum biofilm eradication concentration (MBEC) and 2D MBEC checkerboard assays to determine antibiotic potentiation with PAAG within a biofilm.

[4] = test system: M. abscessus subsp. bolletii NTM 0003; assay: MIC of CF NTM clinical isolates; format: cell-based; settings: for CLSI clinical breakpoint category: NTM 0003; for MIC: M. abscessus subsp. bolletii NTM 0003
[5] = test system: M. abscessus subsp. abscessus NTM 0079; assay: MIC of CF NTM clinical isolates; format: cell-based; settings: for CLSI clinical breakpoint category: NTM 0079; for MIC: M. abscessus subsp. abscessus NTM 0079
MABSC biofilm = assay: 2D MBEC checkerboard assay, antibiotic potentiation in biofilm; format: cell-based, Mycobacterium abscessus complex; settings: for Fold Change: MBEC alone vs MBEC with PAAG 128 μg/mL; for MBEC: antibiotic alone; for MBEC with PAAG: antibiotic with PAAG at half of its MBEC (128 μg/mL)
Description: as §1

M. gordonae NTM 0274 = assay: MIC of CF NTM clinical isolates; format: cell-based; settings: for CLSI clinical breakpoint category: NTM 0274; for MIC: M. gordonae NTM 0274
MAC biofilm = assay: 2D MBEC checkerboard assay, antibiotic potentiation in biofilm; format: cell-based, Mycobacterium avium complex; settings: for Fold Change: MBEC alone vs MBEC with PAAG 8 μg/mL; for MBEC: antibiotic alone; for MBEC with PAAG: antibiotic with PAAG at half of its MBEC (8 μg/mL)
Description: as §1
In addition, PAAG potentiates antibiotics against NTM in biofilms as measured with minimum biofilm eradication concentration (MBEC) (Table 3).

MAC NTM 0260 = assay: 2D checkerboard analysis, antibiotic MIC with PAAG; format: cell-based, Mycobacterium avium complex; settings: for Fold Change: MIC alone vs MIC with PAAG 8 μg/mL; for MIC: Mycobacterium avium
Description: as §1

NTM biofilms = assay: Optical measurement of biofilm thickness; format: cell-based; settings: PAAG at 50, 100 and 200 μg/mL
Excerpt: The biofilm thickness was optically measured assuming the Refractive Index (RI) of the biofilm was equal to water per Bakke & Olsson, et al., (1986).

MAC cultures = assay: Modified time kill analysis with 7-day recovery phase; format: cell-based, Mycobacterium avium complex; settings: PAAG 250 μg/mL
Description: For MAC cultures, a modified time kill analysis was performed over a period of 21 days and included a 7-day recovery phase in antimicrobial free media post treatment. PAAG treatment led to eradication of MAC cell population within 4 days of treatment.

MAC persister cells = assay: PAAG treatment of antibiotic induced NTM persisters; format: cell-based, Mycobacterium avium complex
Excerpt: (§2) The cultures were then pelleted, washed free of antibiotics and resuspended in broth free of any antimicrobials (i.e., recovery phase).

MABSC cultures = assay: Modified time kill analysis with 7-day recovery phase; format: cell-based, Mycobacterium abscessus complex; settings: PAAG 250 μg/mL
Description: For MABSC cultures, a modified time kill analysis was performed over a period of 12 days and included a 7-day recovery phase in antimicrobial free media post treatment. PAAG treatment led to eradication of MABSC cell population within 48 hours of treatment.

[6] = test system: biofilm cultures of Mycobacteria isolates; assay: Static biofilm assay with crystal violet staining; format: cell-based; settings: 48 hour biofilms treated for an hour; increasing dose of PAAG
Description: (§3) Biofilm cultures of Mycobacteria isolates were grown for 48 hours in static 96-well plates at 37 C on a static incubator. The biofilm cultures were treated using PAAG alone and in formulation with 1.38% glycerol for an hour. The MBEC assay measured the logarithmic reduction in the growth of biofilm by serial dilution and spot plate method. […] The static assay was used to measure the decrease in biofilm density as the dose of PAAG increases by staining each well with crystal violet and measuring the biofilm densities at 590 nm.
The biofilm biomass was quantified using crystal violet staining in static TCP biofilm assay.

MABSC persister cells = assay: PAAG treatment of antibiotic induced NTM persisters; format: cell-based, Mycobacterium abscessus complex
Excerpt: as §2

[7] = test system: biofilm cultures of Mycobacteria isolates; assay: MBEC assay, logarithmic reduction of biofilm growth; format: cell-based; settings: 48 hour biofilms treated for an hour; varies from strain to strain
Description: as §3

[8] = Mycobacterium avium, read-out: MIC
[9] = Mycobacteroides abscessus, read-out: MIC
[10] = antibiotic alone, read-out: MIC
[11] = antibiotic with PAAG at half of its MIC (128 μg/mL), read-out: MIC with PAAG
[12] = Mycobacterium gordonae, NTM0274, read-out: MIC
[13] = antibiotic alone, MAC NTM 0260, read-out: MIC

## NCC[C@H](O)C(=O)N[C@@H]1C[C@H](N)[C@@H](O[C@H]2O[C@H](CN)[C@@H](O)[C@H](O)[C@H]2O)[C@H](O)[C@H]1O[C@H]1O[C@H](CO)[C@@H](O)[C@H](N)[C@H]1O [Amikacin]
[1]; Amikacin breakpoints
  CLSI clinical breakpoint category: (S) (≤16 μg/mL (S))
[1]; [8]
  MIC: 2 µg/mL
[2]; Amikacin breakpoints
  CLSI clinical breakpoint category: (R) (≥64 μg/mL (R) for Amikacin)
[2]; [9]
  MIC: 8 µg/mL
[3]; Amikacin breakpoints
  CLSI clinical breakpoint category: (S) (≤16 μg/mL (S))
[3]; [8]
  MIC: 2 µg/mL
MABSC NTM 0082
  Fold Change: 533
MABSC NTM 0082; [10]
  MIC: 32 µg/mL
MABSC NTM 0082; [11]
  MIC: 0.06 µg/mL
[4]; Amikacin breakpoints
  CLSI clinical breakpoint category: (S) (≤16 μg/mL (S))
[4]; [9]
  MIC: 4 µg/mL
[5]; Amikacin breakpoints
  CLSI clinical breakpoint category: (R) (≥64 μg/mL (R) for Amikacin)
[5]; [9]
  MIC: 8 µg/mL
MABSC biofilm
  Fold Change: >512
  MBEC: >1024 µg/mL
  MBEC with PAAG: 2 µg/mL
M. gordonae NTM 0274; Amikacin breakpoints
  CLSI clinical breakpoint category: (S) (≤16 μg/mL (S))
M. gordonae NTM 0274; [12]
  MIC: < 0.0625 µg/mL

## CC[C@H]1OC(=O)[C@H](C)[C@@H](O[C@H]2C[C@@](C)(OC)[C@@H](O)[C@H](C)O2)[C@H](C)[C@@H](O[C@@H]2O[C@H](C)C[C@H](N(C)C)[C@H]2O)[C@](C)(O)C[C@@H](C)CN(C)[C@H](C)[C@@H](O)[C@]1(C)O [Azithromycin]
[1]; Azithromycin breakpoints
  CLSI clinical breakpoint category: (I) (4 μg/mL (I))
[1]; [8]
  MIC: 2 µg/mL
[2]; Azithromycin breakpoints
  CLSI clinical breakpoint category: (R) (≥8 μg/mL (R))
[2]; [9]
  MIC: 32 µg/mL
[3]; Azithromycin breakpoints
  CLSI clinical breakpoint category: (I) (4 μg/mL (I))
[3]; [8]
  MIC: 2 µg/mL
MAC biofilm
  Fold Change: 8
  MBEC: 8 µg/mL
  MBEC with PAAG: 1 µg/mL
[4]; Azithromycin breakpoints
  CLSI clinical breakpoint category: (R) (≥8 μg/mL (R))
[4]; [9]
  MIC: 32 µg/mL
MAC NTM 0260; MAC NTM 0260
  Fold Change: 4
MAC NTM 0260; [13]
  MIC: 2 µg/mL
MAC NTM 0260; read-out: MIC with PAAG
  MIC: 0.5 µg/mL
[5]; Azithromycin breakpoints
  CLSI clinical breakpoint category: (R) (≥8 μg/mL (R))
[5]; [9]
  MIC: 32 µg/mL
M. gordonae NTM 0274; Azithromycin breakpoints
  CLSI clinical breakpoint category: (I) (4 μg/mL (I))
M. gordonae NTM 0274; [12]
  MIC: 2 µg/mL

## O=C(O)c1cn(C2CC2)c2cc(N3CCNCC3)c(F)cc2c1=O [Ciprofloxacin]
MABSC biofilm
  MBEC: >1024 µg/mL

## CC[C@@H](CO)NCCN[C@@H](CC)CO [Ethambutol]
[1]; Ethambutol breakpoints
  CLSI clinical breakpoint category: R (≥2 μg/mL (R) for Ethambutol)
[1]; [8]
  MIC: 2 µg/mL
[2]; Ethambutol breakpoints
  CLSI clinical breakpoint category: R (≥2 μg/mL (R) for Ethambutol)
[2]; [9]
  MIC: 32 µg/mL
[3]; Ethambutol breakpoints
  CLSI clinical breakpoint category: R (≥2 μg/mL (R) for Ethambutol)
[3]; [8]
  MIC: 2 µg/mL
MAC biofilm
  Fold Change: >32
  MBEC: >8 µg/mL
  MBEC with PAAG: <0.25 µg/mL
MABSC NTM 0082
  Fold Change: 128
MABSC NTM 0082; [10]
  MIC: 32 µg/mL
MABSC NTM 0082; [11]
  MIC: 0.25 µg/mL
[4]; Ethambutol breakpoints
  CLSI clinical breakpoint category: R (≥2 μg/mL (R) for Ethambutol)
[4]; [9]
  MIC: 8 µg/mL
MAC NTM 0260; MAC NTM 0260
  Fold Change: 2
MAC NTM 0260; [13]
  MIC: 2 µg/mL
MAC NTM 0260; read-out: MIC with PAAG
  MIC: 1 µg/mL
[5]; Ethambutol breakpoints
  CLSI clinical breakpoint category: R (≥2 μg/mL (R) for Ethambutol)
[5]; [9]
  MIC: 32 µg/mL
MABSC biofilm
  Fold Change: >512
  MBEC: >1024 µg/mL
  MBEC with PAAG: 2 µg/mL
M. gordonae NTM 0274; Ethambutol breakpoints
  CLSI clinical breakpoint category: R (≥2 μg/mL (R) for Ethambutol)
M. gordonae NTM 0274; [12]
  MIC: 2 µg/mL

## CO[C@H]1/C=C/O[C@@]2(C)Oc3c(C)c(O)c4c(O)c(c(/C=N/N5CCN(C)CC5)c(O)c4c3C2=O)NC(=O)/C(C)=C\C=C\[C@H](C)[C@H](O)[C@@H](C)[C@@H](O)[C@@H](C)[C@H](OC(C)=O)[C@@H]1C [Rifampicin]
[1]; [8]
  MIC: 4 µg/mL
[1]; Rifampicin breakpoints
  CLSI clinical breakpoint category: R (≥1 μg/mL (R) for Rifampicin)
[2]; [9]
  MIC: 2 µg/mL
[2]; Rifampicin breakpoints
  CLSI clinical breakpoint category: R (≥1 μg/mL (R) for Rifampicin)
[3]; [8]
  MIC: 4 µg/mL
[3]; Rifampicin breakpoints
  CLSI clinical breakpoint category: R (≥1 μg/mL (R) for Rifampicin)
MAC biofilm
  Fold Change: >32
  MBEC: 8 µg/mL
  MBEC with PAAG: <0.25 µg/mL
MABSC NTM 0082
  Fold Change: 21
MABSC NTM 0082; [10]
  MIC: 2 µg/mL
MABSC NTM 0082; [11]
  MIC: 0.06 µg/mL
[4]; [9]
  MIC: 8 µg/mL
[4]; Rifampicin breakpoints
  CLSI clinical breakpoint category: R (≥1 μg/mL (R) for Rifampicin)
MAC NTM 0260; MAC NTM 0260
  Fold Change: 4
MAC NTM 0260; [13]
  MIC: 4 µg/mL
MAC NTM 0260; read-out: MIC with PAAG
  MIC: 1 µg/mL
[5]; [9]
  MIC: 2 µg/mL
[5]; Rifampicin breakpoints
  CLSI clinical breakpoint category: R (≥1 μg/mL (R) for Rifampicin)
MABSC biofilm
  Fold Change: >512
  MBEC: >1024 µg/mL
  MBEC with PAAG: 2 µg/mL
M. gordonae NTM 0274; [12]
  MIC: 2 µg/mL
M. gordonae NTM 0274; Rifampicin breakpoints
  CLSI clinical breakpoint category: R (≥1 μg/mL (R) for Rifampicin)

## poly(acetyl, arginyl) glucosamine [PAAG]
NTM biofilms
  biofilm thickness: reduction in BCC biofilm thickness in a dose dependent manner
NTM biofilms; depths >5-10 μm
  bacterial viability at depth in biofilm: significantly decreased bacterial viability
[1]
  MIC: 16 µg/mL
[2]
  MIC: 250 µg/mL
MAC cultures; time kill over 21 days
  time to eradication of MAC cell population: ≤ 4 days
MAC cultures; slow growing MAC
  killing outcome: complete eradication
MAC persister cells; MAC cultures surviving antibiotic treatment, PAAG for 10 days
  CFU/mL after PAAG treatment of persisters: 0 CFU/mL
MAC persister cells; MAC, recovery in fresh broth 24 days
  regrowth of persisters after PAAG treatment: none of the persisters in either strain showed regrowth
[3]
  MIC: 16 µg/mL
MABSC cultures; time kill over 12 days
  time to eradication of MABSC cell population: ≤ 48 h
MABSC cultures; rapid growing MABSC
  killing outcome: complete eradication
[6]
  biofilm density (crystal violet, 590 nm): dose dependent reduction in the density of the bacteria
MABSC persister cells; MABSC cultures surviving antibiotic treatment, PAAG for 4 days
  CFU/mL after PAAG treatment of persisters: 0 CFU/mL
MABSC persister cells; MABSC, recovery in fresh broth 12 days
  regrowth of persisters after PAAG treatment: none of the persisters in either strain showed regrowth
[4]
  MIC: 128 µg/mL
[7]
  log reduction in biofilm compared to the control: two to three log reduction
[5]
  MIC: 250 µg/mL
M. gordonae NTM 0274
  MIC: 32 µg/mL
